Test results reported in ChEMBL document CHEMBL5370571, “α-Synuclein Aggregation Inhibitory and Antiplasmodial Activity of Constituents from the Australian Tree Eucalyptus cloeziana” (J Nat Prod, 2023).
The source made the active and inactive calls. The calls are words filed in the database; no cut-off is given here.

Columns and labels:
Plasmodium falciparum [1] = test: Antiplasmodial activity against ring stage drug-sensitive Plasmodium falciparum 3D7 assessed as inhibition of parasite growth incubated for 72 hrs by DAPI staining based assay; type: functional, organism-based; conditions: 3D7, 72 h
HEK293 = test: Cytotoxicity against HEK293 cells assessed as reduction in cell viability at 80 uM measured after 72 hrs by resazurin dye based fluorescence assay relative to control; type: toxicity; conditions: human, hek293, 72 h
[2] = Selectivity index, ratio of IC50 for cytotoxicity against HEK293 cells to IC50 for antiplasmodial activity against ring stage drug-sensitive Plasmodium falciparum 3D7; type: toxicity, cell-based; conditions: human, HEK293 cells versus ring stage Plasmodium falciparum 3D7; read-out: Ratio IC50
[3] = biological target: Alpha-synuclein (Homo sapiens) (UniProt P37840); test: Binding affinity to human alpha-synuclein expressed in Escherichia coli BL21 (DE3) at 100 uM incubated for 3 hrs by ETD Q-TOF ((+) HRESIMS) analysis
[4] = biological target: Alpha-synuclein (Homo sapiens) (UniProt P37840); test: Inhibition of human alpha-synuclein aggregation expressed in Escherichia coli BL21 (DE3) at 10:1 compound to protein molar ratio measured after 36 hrs by thioflavin T fluorescence assay relative to control; conditions: concentration not given here
[5] = biological target: Alpha-synuclein (Homo sapiens) (UniProt P37840); test: Inhibition of human alpha-synuclein aggregation expressed in Escherichia coli BL21 (DE3) at 400 uM measured after 36 hrs by thioflavin T fluorescence assay
Staphylococcus aureus [6] = test: Antibacterial activity against methicillin-susceptible Staphylococcus aureus ATCC 25923 at 64 ug/mL incubated for 16 to 18 hrs by resazurin dye based fluorescence assay; type: functional, organism-based; conditions: dose 64.0 µg/ml, time 16-18 hrs
Staphylococcus aureus [7] = test: Antibacterial activity against methicillin-resistant Staphylococcus aureus ATCC 43300 at 64 ug/mL incubated for 16 to 18 hrs by resazurin dye based fluorescence assay; type: functional, organism-based; conditions: dose 64.0 µg/ml, time 16-18 hrs
Pseudomonas aeruginosa = test: Antibacterial activity against Pseudomonas aeruginosa ATCC 27853 at 64 ug/mL incubated for 18 hrs by resazurin dye based fluorescence assay; type: functional, organism-based; conditions: dose 64.0 µg/ml
[8] = Cytotoxicity against HEK293 cells assessed as reduction in cell viability measured after 72 hrs by resazurin dye based fluorescence assay; type: toxicity; conditions: human
Plasmodium falciparum [9] = test: Antiplasmodial activity against Plasmodium falciparum 3D7 assessed as inhibition of parasite growth; type: functional, organism-based
Plasmodium falciparum [10] = test: Antiplasmodial activity against ring stage drug-sensitive Plasmodium falciparum 3D7 assessed as inhibition of parasite growth at 40 uM incubated for 72 hrs by DAPI staining based assay; type: functional, organism-based

Compound	IC50 (Plasmodium falciparum [1])	Activity (HEK293)	selectivity ratio [2]	Activity [3]	other results
CCc1nc(N)nc(N)c1-c1ccc(Cl)cc1 [PYRIMETHAMINE]	17 nM	31%	588		
C[C@H]1[C@H](OC(=O)CCC(=O)O)O[C@@H]2O[C@@]3(C)CC[C@H]4[C@H](C)CC[C@@H]1[C@@]24OO3 [ARTESUNATE]	1.4 nM	20%	1750		
CC(C)C[C@]1(O)C(O)=C([C@@H](C2=C(O)C(C)(C)C(=O)C(C)(C)C2=O)C(C)C)C(=O)C([C@H](C2=C(O)C(C)(C)C(=O)C(C)(C)C2=O)C(C)C)=C1O	9500 nM	Non-Toxic	> 8.4	Active	inhibition [4]: 39.5%; inhibition [5]: inactive; Activity (Staphylococcus aureus [6]): inactive; Activity (Staphylococcus aureus [7]): inactive; Activity (Pseudomonas aeruginosa): inactive
CC1(C)C=C2C(=O)C(C)(C)C(=O)C(C)(C)[C@@]2(O)OO1				inactive	
COc1ccc(C[C@H](N)C(=O)N[C@H]2[C@@H](O)[C@H](n3cnc4c(N(C)C)ncnc43)O[C@@H]2CO)cc1 [PUROMYCIN]	91 nM		9.2		IC50 at 72 h [8]: 837 nM
CC(=O)O[C@@H]1C(C)(C)C(=O)C(C)(C)C(=O)[C@]1(O)CC(C)C				inactive	
O=C1C=C(c2ccc(O)cc2)[C@@]2(O1)O[C@@]1(OC(=O)C=C1c1ccc(O)cc1)C(c1ccc(O)cc1)=C2c1ccc(O)cc1					IC50 (Plasmodium falciparum [9]): 5100 nM
CC(C)CC(=O)c1c(O)c2c(c3c1O[C@@]1(C(C)C)OC4=C(C(=O)C(C)(C)C(=O)C4(C)C)[C@@H]31)OC1=C(C(=O)C(C)(C)C(=O)C1(C)C)[C@@H]2CC(C)C					IC50 (Plasmodium falciparum [9]): > 40000 nM
CC(C)=C[C@@]1(O)C(=O)C(C)(C)C(=O)C(C)(C)[C@H]1OC(=O)C(C)C	16000 nM	Non-Toxic	> 5	inactive	Activity (Staphylococcus aureus [6]): inactive; Activity (Staphylococcus aureus [7]): inactive; Activity (Pseudomonas aeruginosa): inactive
CC(C)=CC(=O)[C@]1(O)[C@@H](O)C(C)(C)C(=O)C1(C)C				inactive	
CC(C)CC(=O)c1c(O)c2c(c3c1O[C@@]1(C(C)C)OC4=C(C(=O)C(C)(C)C(=O)C4(C)C)[C@@H]31)OC1=C(C(=O)C(C)(C)C(=O)C1(C)C)[C@H]2CC(C)C					IC50 (Plasmodium falciparum [9]): 1000 nM
CC(C)C[C@@]1(O)C(=O)C(C)(C)C(=O)C(C)(C)[C@H]1OC(=O)C(C)C	6600 nM	Non-Toxic	> 12.1	inactive	Activity (Staphylococcus aureus [6]): inactive; Activity (Staphylococcus aureus [7]): inactive; Activity (Pseudomonas aeruginosa): inactive
CC(C)(O)[C@@H]1CC[C@@]2(C)CCC[C@@](C)(O)[C@@H]2C1				inactive	
CC1(C)CC2=C(OO1)C(C)(C)C(=O)C(C)(C)C2=O		Non-Toxic		inactive	
CC(C)CC[C@]1(O)[C@H](O)C(C)(C)[C@@H](O)C(C)(C)[C@@H]1O					Activity (Plasmodium falciparum [10]): inactive
